SMILES strings stand for the structures. Calls of active or inactive are those of the source. The rule behind the calls is not given here.

Assay type in all cases: functional, cell-based
The subject of assay [1] is K562. Kind of assay: Cytotoxicity against human K562 cells by MTT assay. On the technique in general: Formazan colour is commonly taken as a measure of viable cells.
Assay [2] relates to BGC-823. Kind of assay: Cytotoxicity against human BGC823 cells by MTT assay.
In assay [3] the test system is K562. Kind of assay: Cytotoxicity against human adriamycin resistant K562 cells by MTT assay.
Assay [4] relates to HepG2. The assay is described as follows: Cytotoxicity against human HepG2 cells by MTT assay.

`CC1=CC(=O)C2=C(COC(=O)CC(C)C)C[C@H](OS(=O)(=O)O)[C@@H]3[C@H](OC(=O)[C@H]3C)[C@@H]12`: the result in assay [1], in assay [2], in assay [3] and in assay [4] was inactive.

Consider `C=C1[C@@H]2[C@H]3OC(=O)[C@@H](CNCC4CCC(=O)O4)[C@@H]3CCC(=C)[C@@H]2C[C@@H]1O` (stereo partly specified) [SCORZOAUSTRIACIN], for which it took 11.3 µM to reach half-maximal inhibition in assay [1] (IC50). Besides, the result in assay [2], in assay [3] and in assay [4] was inactive.

For `CC1=CC(=O)C2=C(COC(=O)CC(C)C)C[C@H](O)[C@@H]3[C@H](OC(=O)[C@H]3C)[C@@H]12`, the result in assay [1], in assay [2], in assay [3] and in assay [4] was inactive.

For the molecule `C=C1[C@@H]2[C@H]3OC(=O)[C@@H](CNCC4CCC(=O)O4)[C@@H]3CCC(=C)[C@@H]2C[C@@H]1O[C@@H]1O[C@H](CO)[C@@H](O)[C@H](O)[C@H]1O` (stereo partly specified), the outcome in assay [1], in assay [2], in assay [3] and in assay [4] was inactive.

What is called IC50 is the midpoint of a concentration-inhibition curve. Low readings indicate inhibition by little substance, high ones a need for much substance.

The values are drawn from ChEMBL document CHEMBL1154982, “Sesquiterpene lactones from Scorzonera austriaca” (J Nat Prod, 2010).
